Four substances from patent US20050059605A1, “Chemically modified metabolites of regulatory peptides and methods of producing and using same” (priority 2003, published 2005) can be followed below.

Where no end group is shown, it is not given here.

For test [1], the system named is freshly isolated hepatocytes. Nature of the test: Effects of glucagon and analogues on freshly isolated hepatocyte cAMP production. It is filed as cell-based, rat. The conditions noted are these: 10^−7M, n=2, FIG. 3, compared to analogue 357 or glucagon. As to the method:
All experimental procedures were performed under isoflurane (2.5%) anesthesia according to an experimental protocol approved by Ste-Justine Hospital (Montreal) animal care committee. […] The animal was perfused through the heart to remove a maximal amount of blood from the liver (acquire a light brown color). A catheter (PE-90) was then inserted in the portal vein and the liver further perfused to eliminate any trace of blood. The hepatic artery was also cannulated (PE-50) and perfused. The liver was then carefully removed from the abdominal cavity and placed into a 250 ml beaker. Digesting HEPES buffer containing 9650U collagenase and 20U elastase at 37° C. was placed into the beaker and circulated in a closed loop via the catheters for 10 minutes at maximal speed. The buffer was replaced with a fresh solution of collagenase and elastase and perfusion continues for 10 additional minutes. […]
Stimulation studies were performed at a concentration of 1 million cells per tube; 5 minutes of pre-treatment with 0.1 mM IBMX, with or without glucagon agonists (10^−7M) compared to treatment with glucagon (10^−7M). […] The cAMP levels in the tubes were determined using a radioimmunoassay kit (Amersham DPC kit). The data are expressed as pmol cAMP/million cells.
On the technique in general: cAMP levels reflect the balance of adenylyl cyclase and phosphodiesterase activity.

For test [2], the system named is whole anterior pituitary culture. Nature of the test: cAMP production stimulated by GRF analogues in whole anterior pituitary culture. It is filed as cell-based. The following applies: 10^−6 M, compared to analogue 356, FIG. 6. An excerpt:
For comparison, a DPPIV resistant analogue of GRF (analogue 280) was shown.

Another test deals with RINm5F cells. Briefly: Dose response curves of GLP-1 analogues on cAMP production in RINm5F cells. The conditions noted are these: n=3, FIG. 4. Format: cell-based, rat. As to the method:
RINm5F cells (ATCC # CRL-2058) were grown according to the manufacturer's specifications. Cells from […] confluent flasks were trypsinized and counted. 20 000 cells/well were seeded in 96-well plate (White Costar plate with clear bottom) in 100 μl media. Cells were grown four days past confluence before being using for experiments.
Stock solutions of agents tested were prepared in DDH2O+0.1% BSA at a concentration of 1 mM (correcting for peptide purity and peptide content when available) immediately prior to the beginning of the assay. From the stock solutions, 2× dilutions (2×10^−12 M to 2×10^−5 M) were made in RPMI medium containing 0.5 mM IBMX. Cell culture media was gently removed from wells. Cells were then washed once with RPMI containing 0.5 mM IBMX and then pre-incubated in 100 μl RPMI/0.5 mM IBMX at 37° C. for 10 minutes. After pre-incubation, 100 μl of each 2× dilutions were added to wells in triplicates and incubated at 37° C. for 40 minutes. At the end of incubation, the supernatant was collected and assayed for cAMP using a radioimmunoassay kit (DPC). Radioactive counts were transformed into cAMP amounts using a standard curve. cAMP values were corrected for total protein content in the corresponding wells determined by Coomassie blue assay. cAMP values were expressed as mean±SEM in pmol/mg protein (FIG. 2). […]

In a further test the test system is C57BL/ks db/db mice. Briefly: Glucose levels after subcutaneous injection in fasted and re-fed db/db mice. The conditions noted are these: 25 μg/mice (500 μg/kg) subcutaneous, 30 minutes of feeding subsequent to overnight fasting, compared to native GLP-1, FIG. 5. It is filed as in vivo.

With “4-Methoxyphenethylamine-mGly-Glucagon (3-29) amide [Compound 361]”, the “intracellular cAMP levels” value in test [1] is “significantly higher intracellular cAMP levels”.

Regarding “Glucagon (3-29) amide (QGTFTSDYSKYLDSRRAQDFVQWLMNT-NH2; UniProt P01275 55-81, looked up, fragment) [Compound 357, glucagon analogue lacking the His-Ser dipeptide, reference compound]”, in test [1], the “intracellular cAMP levels” value was “negligible response”. As for “4-Methoxyphenethylamine-mGly-GRF-1 (3-29) amide [Compound 358]”, in test [2], the cAMP response result was “significantly greater cAMP response”.

“4-Methoxyphenetylamine-mGly-GLP-1 (9-36) amide [Compound 288]”: in the test on RINm5F cells, the cAMP production entry is listed as “increased CAMP production”. In the test on C57BL/ks db/db mice, the “glucose levels (hypoglycemic response)” value is given as “more significant hypoglycemic response”.
